Patent publication US7973056B2, “Triazole derivative or salt thereof” (Fujifilm Finechemicals Co., Ltd, priority 2008, dated 2011)

Columns and labels:
[1] = system: Candida albicans ATCC 10231; assay: Antifungal activity test (in vitro), MIC; assay type: cell-based; conditions: ATCC10231
[2] = system: Pityrosporum ovale ATCC 38593; assay: Antifungal activity test (in vitro), MIC; assay type: cell-based; conditions: Malassezia furfur, ATCC38593
[3] = system: Cryptococcus neoformans ATCC 24067; assay: Antifungal activity test (in vitro), MIC; assay type: cell-based; conditions: ATCC24067
[4] = system: Candida albicans TIMM 1623; assay: Antifungal activity test (in vivo), mouse systemic infection model; conditions: for T/C (%): survival time of administration group / control group x100
Experimental: With respect to compounds I-1, I-3 and I-6 obtained in Examples 1, 3 and 6 respectively, therapeutic effects at the time of subcutaneous administration of compounds I-1, I-3 and I-6 on a mouse systemic infection model by Candida albicans TIMM 1623 were tested.
The test was carried out using 5 animals for each of the drug administration groups and Negative control group (sterile physiological saline administration group).
Each of compounds I-1, I-3 and I-6 was dissolved in and diluted with dimethyl sulfoxide (DMSO; Wako Pure Chemical Industries, Ltd.) and then prepared into a predetermined concentration by diluting with sterile physiological saline.
As the control experiment, Fluconazole (FLCZ, Flanos intravenous drip solution 100 mg; TOYAMA CHEMICAL CO, LTD.) diluted to a predetermined concentration with sterile physiological saline was used.
On the next day of the receipt of animals, body weights of mice were measured and CP (crude protein) was intraperitoneally administered at a dose of 200 mg/kg based on the individual body weight, and then they were reared for 3 days.
Cells of C. albicans TIMM 1623 cultured overnight at 35° C. on SDA (Sabouraud dextrose agar; Eiken Chemical Co., Ltd.) plate medium were suspended in sterile physiological saline and used as the Stock solution, and a portion thereof was diluted with 10% formalin (Wako Pure Chemical Industries, Ltd.). The number of cells in the diluted liquid was counted under a biological microscope using a hemocytometer, and then an inoculum was prepared by diluting the stock solution with sterile physiological saline (about 1.5×10^5 cells/ml). By inoculating 0.2 ml of this cell suspension through caudal vein, infection was induced. In this connection, the number of viable cells in the inoculum was verified by spreading the cell suspension optionally diluted with sterile physiological saline on an SDA plate medium and then culturing at 35° C. Each of the substances to be tested, control substance or sterile physiological saline was subcutaneously administered after 2 hours of the infection and for 3 days starting on the next day of infection once a day, a total of 4 times. After measuring individual body weight on the next day of infection, CP was again administered intraperitoneally at a dose of 100 mg/kg. The number of survived mice was observed and recorded for 14 days starting on the next day of infection.
The results were shown in Table 3 below and FIGS. 1A to 1D. In the table, the administration dose of the compounds of the present invention and the comparative compound represents a mg amount per 1 kg of a mouse weight (mg/kg).
Significant deference was tested, by 5% for both sides of the levels of significance, in accordance with the Kaplan-Meier method Logrank test (comparison of multiple groups), on the survival time distribution of each of the substances to be tested and control substance administration groups and sterile physiological saline administration group. SAS release 8.2 (SAS Institute Japan) was used in the Kaplan-Meier method Logrank test. (T/C(%)=[survival time of administration group (integrated value)/survival time of control group (integrated value)]×100)

C[C@@H](N1CC=C(c2ccc(Cl)cn2)CC1)[C@](O)(Cn1cncn1)c1ccc(F)cc1F [I-6, (2R,3R)-3-(5-chloro-3′,6′-dihydro-2,4′-bipyridin-1′(2′H)-yl)-2-(2,4-difluorophenyl)-1-(1,2,4-triazol-1-yl)butan-2-ol]
80: survival rate ([4]; 0.1 mg/kg s.c., day 7)
194%: T/C (%) ([4]; 0.1 mg/kg s.c.)
100: survival rate ([4]; 0.1 mg/kg s.c., day 0) | survival rate ([4]; 0.1 mg/kg s.c., day 1) | survival rate ([4]; 0.1 mg/kg s.c., day 2) | survival rate ([4]; 0.1 mg/kg s.c., day 3) | survival rate ([4]; 0.1 mg/kg s.c., day 4) | survival rate ([4]; 0.1 mg/kg s.c., day 5) | survival rate ([4]; 0.1 mg/kg s.c., day 6) | survival rate ([4]; 1 mg/kg s.c., day 0) | survival rate ([4]; 1 mg/kg s.c., day 1) | survival rate ([4]; 1 mg/kg s.c., day 2) | survival rate ([4]; 1 mg/kg s.c., day 3) | survival rate ([4]; 1 mg/kg s.c., day 4) | survival rate ([4]; 1 mg/kg s.c., day 5) | survival rate ([4]; 1 mg/kg s.c., day 6) | survival rate ([4]; 1 mg/kg s.c., day 7) | survival rate ([4]; 1 mg/kg s.c., day 8) | survival rate ([4]; 1 mg/kg s.c., day 9) | survival rate ([4]; 1 mg/kg s.c., day 10) | survival rate ([4]; 1 mg/kg s.c., day 11) | survival rate ([4]; 1 mg/kg s.c., day 12) | survival rate ([4]; 1 mg/kg s.c., day 13) | survival rate ([4]; 1 mg/kg s.c., day 14) | survival rate ([4]; 10 mg/kg s.c., day 0) | survival rate ([4]; 10 mg/kg s.c., day 1) | survival rate ([4]; 10 mg/kg s.c., day 2) | survival rate ([4]; 10 mg/kg s.c., day 3) | survival rate ([4]; 10 mg/kg s.c., day 4) | survival rate ([4]; 10 mg/kg s.c., day 5) | survival rate ([4]; 10 mg/kg s.c., day 6) | survival rate ([4]; 10 mg/kg s.c., day 7) | survival rate ([4]; 10 mg/kg s.c., day 8) | survival rate ([4]; 10 mg/kg s.c., day 9) | survival rate ([4]; 10 mg/kg s.c., day 10) | survival rate ([4]; 10 mg/kg s.c., day 11) | survival rate ([4]; 10 mg/kg s.c., day 12) | survival rate ([4]; 10 mg/kg s.c., day 13) | survival rate ([4]; 10 mg/kg s.c., day 14)
0.01 mg/L: MIC [1]
60: survival rate ([4]; 0.1 mg/kg s.c., day 8) | survival rate ([4]; 0.1 mg/kg s.c., day 9) | survival rate ([4]; 0.1 mg/kg s.c., day 10) | survival rate ([4]; 0.1 mg/kg s.c., day 11) | survival rate ([4]; 0.1 mg/kg s.c., day 12) | survival rate ([4]; 0.1 mg/kg s.c., day 13) | survival rate ([4]; 0.1 mg/kg s.c., day 14)
0.003 mg/L: MIC [2]
242%: T/C (%) ([4]; 1 mg/kg s.c.) | T/C (%) ([4]; 10 mg/kg s.c.)
0.03 mg/L: MIC [3]
